From PubChem BioAssay AID2040 (NMMLSC, 2009)
Activity calls are given as the source filed them. No rule for the calls is given here.

Target: Ras-related C3 botulinum toxin substrate 1 (Homo sapiens) (UniProt P63000)
Assay: wildtype Rac1 GTP binding inhibitors, SAR follow-up, biochemical, additional analogs, multiplex bead flow cytometry (AID 2040)
Conditions: for Ki: measured here: Ki derived from EC50

Row | Compound | Ki [µM] | EC50
1 | COc1cc(-c2c(C#N)c(N)n(S(=O)(=O)c3c(C(C)C)cc(C(C)C)cc3C(C)C)c2C(=O)c2ccccc2)cc(OC)c1OC | 7.04 | 
2 | O=Nc1c(-c2c(O)[nH]c3c(F)cccc23)[nH]c2ccccc12 |  | > 30 µM (inactive)
3 | O=C1C(c2c(O)[nH]c3c(F)cccc23)=Nc2ccccc21 | 3.23 | inactive
4 | O=C1N=c2ccccc2=C1c1[nH]c(=O)[nH]c1O | 0.25 | inactive
5 | O=Nc1c(-c2c(O)[nH]c3c(Cl)cccc23)[nH]c2ccccc12 |  | > 30 µM (inactive)
6 | O=Nc1c(-c2c(O)[nH]c3c(Br)cccc23)[nH]c2ccccc12 |  | > 30 µM (inactive)
7 | O=C1Nc2cccc(Br)c2/C1=C1/Cc2ccccc2C1=O | 1.13 | 
8 | O=C1C(c2c(O)[nH]c3c(Br)cccc23)=Nc2ccccc21 |  | > 30 µM (inactive)
9 | O=C1C(c2c(O)[nH]c3c(Cl)cccc23)=Nc2ccccc21 |  | > 30 µM (inactive)
10 | O=Nc1c(-c2c(O)[nH]c3ccccc23)[nH]c2ccccc12 |  | > 30 µM (inactive)
11 | O=C1N=c2ccccc2=C1c1[nH]c(=S)[nH]c1O | 0.16 | inactive
12 | COc1ccc(S(=O)(=O)n2c(N)c(C#N)c(-c3cncc(Br)c3)c2C(=O)c2ccccc2)cc1 | 0.92 | 
13 | CSc1ccc(/C=C2/C(C)=C(CC(=O)O)c3cc(F)ccc32)cc1 | 5.11 | 
14 | O=C1C(c2c(O)[nH]c3ccc(Br)cc23)=Nc2ccccc21 | 1.51 | inactive
15 | O=C1C(c2c(O)[nH]c3ccccc23)=Nc2ccccc21 |  | > 30 µM (inactive)
16 | O=Nc1c(-c2c(O)[nH]c3ccc(Br)cc23)[nH]c2ccccc12 |  | > 30 µM (inactive)
